Holding throughout (type): physicochemical
Series [1] is described as follows: Determination of solubility in water (HPLC of supernatant). The conditions noted are these: 25° C., 15 min, 50 mg suspended in 10 mL distilled water. Here is the method: After 50 mg each of samples of the crystals prepared according to the foregoing methods and the crystal of the compound (I) in its free state was suspended in 10 mL of distilled water and then each suspension was stirred at room temperature for 15 minutes, the supernatant of each suspension was collected, then passed through a disposable filter of 0.2 μm for HPLC, 1 to 3.5 g of each filtered supernatant was dispensed, the volume thereof was increased up to 10 mL with a 90% aqueous solution of acetonitrile and finally the content of the compound (I) present in the supernatant was determined according to the HPLC while using the following conditions.
(Conditions for the HPLC Analysis)
(§1) Device Used: LC-10A Series (available from Shimadzu Corporation);
(§2) Column: Inertsil (available from GL Science Company) ODS-24.5 mm×150 mm, 5 μm, 40° C.;
(§3) Flow Rate: 1 mL/min, UV at 254 nm, 10 μL Injection;
(§4) Eluting Solution A: 0.1% TFA (trifluoroacetic acid)/water;
(§5) Eluting Solution B: 0.1% TFA/MeCN;
(§6) Gradient Program: 0→25 min (B: 0→90%).

Series [2] can be described thus: Determination of adsorption-desorption of water vapor. The conditions noted are these: isothermal water vapor adsorption-desorption, 25° C. Here is the method: The crystals of the present invention were inspected for their water vapor adsorption-desorption ability using BELLSORP-aqua3 available from Nippon Bell Co., Ltd. More specifically, about 300 mg of the compound represented by the formula (I) was dispensed into a measuring tube, dried at 50° C. for 30 minutes and the amount of water vapor adsorbed on or desorbed from the crystal was determined under the following conditions:
Adsorption Temperature: 25° C.; Equilibration Time: 500 sec; Saturated Vapor Pressure: 3.169 kPa;
Excessively Introduced Amount: 0.2 or 1.0 cm^3 (STP)/g; Tolerance for Increase or Decrease of Adsorbed Amount: 0.2 or 1.0 cm^3 (STP)/g.

The nature of series [3]: Determination of storage stability (accelerated test, HPLC). The conditions noted are these: 40° C., 75% RH, 2M (two months). Here is the method: The crystal of a salt of the compound represented by the formula (I) was inspected for the storage stability, when it was stored at 40° C., 75% RH over two months, according to the following method. The results observed for preferred crystals, i.e., forms Cl1, Br1, Br2, Ms1 and Ms3 crystals, among others, are summarized in the following Table 2. The data listed in Table 2 indicate that the crystals of the compound (I) in their preferred crystalline forms according to the present invention are particularly excellent in their storage stability.
The storage stability of each sample, which had been stored in a depository at 40° C., 75% RH over two months, was determined according to the HPLC analysis method.
More specifically, about 25 mg each of the crystals of the compound represented by the formula (I) was dispensed into a 50 mL volume measuring flask and then dissolved in a 90% aqueous solution of acetonitrile containing 0.1% TFA and the storage stability of the resulting solution was determined by the HPLC analysis under the following conditions.
(Conditions for HPLC Analysis)
as §1, §2, §3, §4, §5, §6

In brackets after ≈: the same amount, converted by molar mass.

In the case of `COC(=O)[C@H](Cc1ccc(-n2c(=O)c3cc(N(C)C)ccc3n(C)c2=O)cc1)NC(=O)c1c(Cl)cccc1Cl` [Form S1], in series [1] (listed as Sulfate (Form S1)), the “Solubility in Water” value came to 104 µg/mL (≈ 183 µM).

For the compound `COC(=O)[C@H](Cc1ccc(-n2c(=O)c3cc(N(C)C)ccc3n(C)c2=O)cc1)NC(=O)c1c(Cl)cccc1Cl` [Form Br2], in series [2], the “change in crystalline state at a high humidity” value (“change in crystalline state” for short) was “only a very slight change in its crystalline state”. In series [1] (listed as HBr salt (Form Br2)), the “Solubility in Water” value turned out to be 123 µg/mL. Also, the “Accelerated Test, Stability: initial sample still in existence” value (from here on “Accelerated Test, Stability”) in series [3] is recorded as 98.13% of the initial sample was still in existence and.

Turning to `COC(=O)[C@H](Cc1ccc(-n2c(=O)c3cc(N(C)C)ccc3n(C)c2=O)cc1)NC(=O)c1c(Cl)cccc1Cl` [Form Cl5], in series [1] (listed as Hydrochloride (Form Cl5)), the “Solubility in Water” value was found to be 91 µg/mL (≈ 160 µM).

`COC(=O)[C@H](Cc1ccc(-n2c(=O)c3cc(N(C)C)ccc3n(C)c2=O)cc1)NC(=O)c1c(Cl)cccc1Cl` [Form Cl3]: in series [1] (listed as Hydrochloride (Form Cl3)), the “Solubility in Water” value turned out to be 102 µg/mL (≈ 179 µM).

With `COC(=O)[C@H](Cc1ccc(-n2c(=O)c3cc(N(C)C)ccc3n(C)c2=O)cc1)NC(=O)c1c(Cl)cccc1Cl` [Form Ms3], the “Solubility in Water” value in series [1] (listed as Methane-sulfonate (Form Ms3)) stood at 109 µg/mL (≈ 191 µM). Besides, the “Accelerated Test, Stability” value in series [3] is on record as 97.41% of the initial sample was still in existence and.

On to `COC(=O)[C@H](Cc1ccc(-n2c(=O)c3cc(N(C)C)ccc3n(C)c2=O)cc1)NC(=O)c1c(Cl)cccc1Cl` [Form Br1], for which the “Solubility in Water” value in series [1] (listed as HBr salt (Form Br1)) came out at 120 µg/mL. Moreover, the “Accelerated Test, Stability” value in series [3] is given as 99.05% of the initial sample was still in existence.

Regarding `COC(=O)[C@H](Cc1ccc(-n2c(=O)c3cc(N(C)C)ccc3n(C)c2=O)cc1)NC(=O)c1c(Cl)cccc1Cl` [Form Cl1], the “change in crystalline state” value in series [2] is given as “only a very slight change in its crystalline state”. In addition, the “Solubility in Water” value in series [1] (listed as Hydrochloride (Form Cl1)) was determined as 122 µg/mL (≈ 214 µM). Also, the “Accelerated Test, Stability” value in series [3] is 99.03% of the initial sample was still in existence.

For `COC(=O)[C@H](Cc1ccc(-n2c(=O)c3cc(N(C)C)ccc3n(C)c2=O)cc1)NC(=O)c1c(Cl)cccc1Cl` [Form S3], the “Solubility in Water” value in series [1] (listed as Sulfate (Form S3)) turned out to be 119 µg/mL (≈ 209 µM).

With `COC(=O)[C@H](Cc1ccc(-n2c(=O)c3cc(N(C)C)ccc3n(C)c2=O)cc1)NC(=O)c1c(Cl)cccc1Cl` [Form Ms4], in series [1] (listed as Methane-sulfonate (Form Ms4)), the “Solubility in Water” value amounted to 94 µg/mL (≈ 165 µM).

Regarding `COC(=O)[C@H](Cc1ccc(-n2c(=O)c3cc(N(C)C)ccc3n(C)c2=O)cc1)NC(=O)c1c(Cl)cccc1Cl` [Form Ts1], the “Solubility in Water” value in series [1] (listed as Toluene-sulfonate (Form Ts1)) was found to be 97 µg/mL (≈ 170 µM).

In the case of `COC(=O)[C@H](Cc1ccc(-n2c(=O)c3cc(N(C)C)ccc3n(C)c2=O)cc1)NC(=O)c1c(Cl)cccc1Cl` [Form Ms1], in series [2], the “change in crystalline state” value was “only a very slight change in its crystalline state”. Further, in series [1] (listed as Methane-sulfonate (Form Ms1)), the “Solubility in Water” value turned out to be 102 µg/mL (≈ 179 µM). Also, the “Accelerated Test, Stability” value in series [3] was 99.06% of the initial sample was still in existence.

On to `COC(=O)[C@H](Cc1ccc(-n2c(=O)c3cc(N(C)C)ccc3n(C)c2=O)cc1)NC(=O)c1c(Cl)cccc1Cl` [Form N1], for which, in series [1] (listed as Nitrate (Form N1)), the “Solubility in Water” value is 110 µg/mL (≈ 193 µM).

Take `COC(=O)[C@H](Cc1ccc(-n2c(=O)c3cc(N(C)C)ccc3n(C)c2=O)cc1)NC(=O)c1c(Cl)cccc1Cl` [Form Ms2]: the “Solubility in Water” value in series [1] (listed as Methane-sulfonate (Form Ms2)) amounted to 115 µg/mL (≈ 202 µM).

Consider `COC(=O)[C@H](Cc1ccc(-n2c(=O)c3cc(N(C)C)ccc3n(C)c2=O)cc1)NC(=O)c1c(Cl)cccc1Cl` [Free State], for which the “Solubility in Water” value in series [1] came to 0.12 µg/mL (≈ 0.211 µM).

For `COC(=O)[C@H](Cc1ccc(-n2c(=O)c3cc(N(C)C)ccc3n(C)c2=O)cc1)NC(=O)c1c(Cl)cccc1Cl` [Form S2], in series [1] (listed as Sulfate (Form S2)), the “Solubility in Water” value was determined as 129 µg/mL (≈ 227 µM).

On to `COC(=O)[C@H](Cc1ccc(-n2c(=O)c3cc(N(C)C)ccc3n(C)c2=O)cc1)NC(=O)c1c(Cl)cccc1Cl` [Form Cl2], for which the “Solubility in Water” value in series [1] (listed as Hydrochloride (Form Cl2)) came to 101 µg/mL (≈ 177 µM).

Consider `COC(=O)[C@H](Cc1ccc(-n2c(=O)c3cc(N(C)C)ccc3n(C)c2=O)cc1)NC(=O)c1c(Cl)cccc1Cl` [Form N2], for which the “Solubility in Water” value in series [1] (listed as Nitrate (Form N2)) is 128 µg/mL (≈ 225 µM).
